These are literature values, as cited in the PKSmart pharmacokinetics tables (Seal et al. 2025).

This data set in a line: Lombardo, Berellini, Obach 2018, Drug Metab Dispos 46:1466, doi 10.1124/dmd.118.082966. As to conditions: human; for MRT / Vd / clearance / half-life: in vivo, iv; for fraction unbound: plasma.

One may read the MRT as the average time that molecules of a dose stay in the body. The term Vd denotes the apparent volume that relates the amount in the body to the concentration in plasma or blood. In general, clearance refers to the volume of plasma or blood freed of the substance per unit of time. What is called half-life is how long it takes for the measured level to halve. What is called fraction unbound is free concentration divided by total concentration. Consider `CCCc1c(O)n2c(N(C)C)nc3ccc(C)cc3[n+]2c1O`, for which the MRT was 14 h, the Vd is 0.12 L/kg, the clearance was 0.14 mL/min/kg and the half-life was 17 h. Further, the free fraction (fraction unbound) was 0.004.

Consider `CC(=O)O[C@H]1C[C@]2(O)[C@H]3CC[C@H]4C[C@H](O[C@H]5C[C@@H](O)[C@@H](O[C@H]6C[C@@H](O)[C@@H](O[C@H]7C[C@@H](O)[C@@H](O)[C@H](C)O7)[C@H](C)O6)[C@H](C)O5)CC[C@@]4(C)[C@H]3CC[C@]2(C)[C@H]1C1=CC(=O)OC1`, for which the mean residence time MRT is 72.3 h, the Vd is 0.78 L/kg, the clearance is 8.7 mL/min/kg and the half-life was 51.6 h. Further, the fraction unbound is 0.07.

With `CN(C)[C@@H]1C(O)=C(C(N)=O)C(=O)[C@@]2(O)C(O)=C3C(=O)c4c(O)ccc(Cl)c4[C@@](C)(O)[C@H]3C[C@@H]12`, the mean residence time (MRT) is 7.4 h, the Vd was 0.9 L/kg, the clearance was 2 mL/min/kg and the half-life was 7 h.

Consider `CN1[C@@H]2CC[C@H]1C[C@@H](OC(=O)c1c[nH]c3ccccc13)C2`, for which the mean residence time (MRT) was 6.3 h, the Vd is 9.7 L/kg, the clearance is 26 mL/min/kg and the half-life is 5.6 h.

Take `Cc1nc2n(c(=O)c1CCN1CCC(c3noc4cc(F)ccc34)CC1)CCCC2O` (stereo unspecified): the clearance is 1.18 mL/min/kg, the half-life was 24.6 h and the fraction unbound is 0.24.

On to `COc1cc2c(cc1OC)CN(c1cc(N)c3cc(OC)c(OC)cc3n1)CC2`, for which the MRT is 7.6 h, the Vd was 6.3 L/kg, the clearance was 14 mL/min/kg and the half-life is 5.9 h.

`COc1ccc(-n2nc(C(N)=O)c3c2C(=O)N(c2ccc(N4CCCCC4=O)cc2)CC3)cc1`: the Vd was 0.3 L/kg, the clearance was 0.8 mL/min/kg and the half-life was 12 h.

With `CN1C(=O)CC[C@H]1c1cccnc1`, the MRT was 21 h, the Vd is 1.1 L/kg, the clearance is 0.89 mL/min/kg and the half-life is 17 h.

On to `O=c1[nH]cnc2[nH]ncc12`, for which the MRT was 0.88 h and the Vd is 0.58 L/kg.

Take `CC(C)(C)C1(O)CC2OC(=O)CC23C(=O)OC2OC(=O)C(O)C231` (stereo unspecified): the MRT is 4 h, the Vd was 2.5 L/kg, the clearance is 10 mL/min/kg and the half-life was 3.2 h.

Turning to `CC[C@@]1(O)C(=O)OCc2c1cc1n(c2=O)Cc2c-1nc1ccccc1c2CC[Si](C)(C)C`, the MRT is 13.3 h, the Vd is 3.26 L/kg, the clearance was 4.2 mL/min/kg and the half-life was 13.2 h.

Turning to `C[C@@]12CCCCC[C@@H](Cc3ccc(O)cc31)[C@@H]2N`, the MRT is 4.6 h, the distribution volume (Vd) is 5.6 L/kg, the clearance was 27.5 mL/min/kg and the half-life was 3.9 h. Further, the free fraction (fraction unbound) is 0.08.

As for `C[C@@H](O)C1C(=O)N2C(C(=O)O)=C(CN)S[C@H]12` (stereo partly specified), the MRT was 0.5 h, the Vd is 0.23 L/kg, the clearance is 7.67 mL/min/kg and the half-life is 0.5 h.

For the compound `N=C(N)Nc1ccc(C(=O)Oc2ccc3cc(C(=N)N)ccc3c2)cc1`, the MRT is 1.15 h, the Vd is 5.71 L/kg, the clearance was 82 mL/min/kg and the half-life was 1.84 h.

`CC(=O)Nc1ccc(C2=NNC(=O)CC2C)cc1` (stereo unspecified): the MRT was 88 h, the Vd is 2.38 L/kg, the clearance is 0.45 mL/min/kg and the half-life is 70 h. Further, the fraction unbound is 0.4.

As to `O=C(NC1CC[C@@H](c2cccc(F)c2F)CN(CC(F)(F)F)C1=O)N1CCC(n2c(=O)[nH]c3ncccc32)CC1` (stereo partly specified), the mean residence time MRT is 2.5 h, the Vd was 0.86 L/kg, the clearance was 5.8 mL/min/kg and the half-life was 8.2 h.

Consider `CC(=O)OC1=C2C(C)[C@@H](OC(=O)C(O)C(NC(=O)c3ccccc3)c3ccccc3)C[C@@](O)([C@@H](OC(=O)c3ccccc3)[C@@H]3[C@]4(OC(C)=O)CO[C@@H]4C[C@H](O)[C@@]3(C)C1=O)C2(C)C` (stereo partly specified), for which the MRT was 7.8 h, the Vd is 3 L/kg, the clearance is 6.4 mL/min/kg and the half-life was 11 h. Moreover, the fraction unbound was 0.12.

Turning to `CNC(=O)c1c(I)c(NC(C)=O)c(I)c(C(=O)O)c1I`, the MRT was 1.2 h, the Vd is 0.17 L/kg, the clearance was 2.4 mL/min/kg and the half-life is 1.3 h.

Regarding `Cc1ccc(C(CN)CC(=O)O)cc1` (stereo unspecified), the MRT was 6.36 h, the Vd was 0.65 L/kg, the clearance is 1.7 mL/min/kg and the half-life is 5.24 h. The fraction unbound was 0.69.

As for `O=C(O)CCCCON=C(c1cccnc1)c1cccc(C(F)(F)F)c1`, the MRT is 6.8 h, the Vd is 0.43 L/kg, the clearance is 1.05 mL/min/kg and the half-life was 7.54 h. Moreover, the unbound share (fraction unbound) was 0.033.

With `C#CCN(C)C(C)Cc1ccccc1` (stereo unspecified), the MRT is 1.6 h, the Vd is 1.9 L/kg, the clearance was 20 mL/min/kg and the half-life was 1.3 h.

Consider `O=C1CN=C(c2ccccc2Cl)c2cc(Cl)ccc2N1`, for which the MRT is 220 h, the Vd was 2.2 L/kg, the clearance was 0.17 mL/min/kg and the half-life is 200 h. In addition, the fraction unbound is 0.051.

For the compound `CC(C)=CCN1Cc2cc(Cl)cc3[nH]c(=S)n(c23)C[C@@H]1C`, the MRT is 35.2 h, the Vd is 22 L/kg, the clearance is 10.4 mL/min/kg and the half-life was 26 h.

For `NC(CCC(=O)NC(CS(=O)(=O)CCOP(=O)(N(CCCl)CCCl)N(CCCl)CCCl)C(=O)NC(C(=O)O)c1ccccc1)C(=O)O` (stereo unspecified), the MRT was 0.27 h, the Vd was 0.46 L/kg, the clearance is 28.5 mL/min/kg and the half-life was 0.28 h.

Regarding `Cc1c(O)ccc2c1OC[C@@H](c1ccc(O)cc1)[C@H]2c1ccc(O)cc1`, the MRT was 2.38 h, the Vd is 1.2 L/kg, the clearance is 8.42 mL/min/kg and the half-life is 5.3 h.

For the compound `CN(C)CCN1C(=O)c2cccc3cc([N+](=O)[O-])cc(c23)C1=O`, the MRT was 5.6 h, the Vd is 11.3 L/kg, the clearance is 34.6 mL/min/kg and the half-life was 28.7 h.

Take `O=P(O)(O)C(Sc1ccc(Cl)cc1)P(=O)(O)O`: the mean residence time MRT was 9.5 h, the Vd was 0.23 L/kg, the clearance is 0.4 mL/min/kg and the half-life is 7.7 h. The fraction unbound was 0.1.

`O=C1CN=C(c2ccccc2Cl)c2cc(Br)ccc2N1`: the MRT was 28.3 h, the Vd was 0.089 L/kg, the clearance was 0.05 mL/min/kg and the half-life was 14.9 h.

In the case of `CC(C)NCC(O)c1ccc(O)c(O)c1` (stereo unspecified), the MRT was 0.43 h, the Vd is 1.5 L/kg, the clearance was 56 mL/min/kg and the half-life is 0.41 h. The unbound share (fraction unbound) is 0.71.

As to `CCCNC(=O)NS(=O)(=O)c1ccc(Cl)cc1`, the MRT was 70 h, the distribution volume (Vd) was 0.19 L/kg, the clearance is 0.045 mL/min/kg and the half-life is 46 h.

On to `Cc1cccc([C@H](C)c2c[nH]cn2)c1C`, for which the MRT was 2.5 h, the Vd is 1.6 L/kg, the clearance was 11 mL/min/kg and the half-life is 2.2 h. Moreover, the fraction unbound was 0.06.

In the case of `CCc1nc(N)nc(N)c1-c1ccc(Cl)cc1`, the MRT is 140 h, the Vd is 0.43 L/kg, the clearance was 0.052 mL/min/kg and the half-life was 140 h. Moreover, the fraction unbound is 0.095.

Regarding `COc1ccccc1Oc1c(NS(=O)(=O)c2ccc(C)cn2)nc(-c2ccnc(-c3nnn[nH]3)c2)nc1OCCO`, the MRT is 0.4 h, the Vd is 0.23 L/kg, the clearance is 10.5 mL/min/kg and the half-life is 2.6 h. Also, the fraction unbound was 0.02.

On to `O=C(O)CSc1nnc(Br)n1-c1ccc(C2CC2)c2ccccc12`, for which the MRT was 3.33 h, the Vd is 0.29 L/kg, the clearance was 1.43 mL/min/kg and the half-life was 5 h. Moreover, the fraction unbound was 0.02.
